Experimental data as given in patent publication US11505560B2, “Heterobifunctional compounds with improved specificity” (DANA-FARBER CANCER INSTITUTE, INC., priority 2017, dated 2022).
“Also recorded” adds a separate entry of the source.

Columns and labels:
[1] = system: BRD2BD1, BRD2BD2, BRD3BD1, BRD3BD2, BRD4BD1, BRD4BD2 GFP constructs; assay: Cellular imaging-based degradation assay (bromodomain-GFP with mCherry reporter); type: cell-based, human
Description: Cells stably expressing bromodomain-GFP with mCherry reporter were seeded at 30-50% confluency in 384 well plates (3764, Corning) with 50 μL FluoroBrite DMEM media (Gibco, A18967) containing 10% FBS per well a day before compound treatment. Compounds (see Figure legends) were dispensed using D300e Digital Dispenser (HP) normalized to 0.5% DMSO and incubated with cells for 5 h. The assay plate was imaged immediately using Acumen eX3/HCl (TTPLabtech) High Content Imager with 488 nm and 561 nm lasers in 2 μm×1 μm grid per well format. The resulting images were analyzed using CellProfiler™ (Carpenter, et al., GenomeBiology 7:r100 (2006)). A series of image analysis steps (‘image analysis pipeline’) was constructed.
The CellProfiler™ pipeline steps are briefly outlined here. First, the red and green channels were aligned and cropped to target the middle of each well (to avoid analysis of heavily clumped cells at the edges), and a background illumination function was calculated for both red and green channels of each well individually and subtracted to correct for illumination variations across the 384-well plate from various sources of error. An additional step was then applied to the green channel to suppress the analysis of large auto fluorescent artifacts and enhance the analysis of cell specific fluorescence by way of selecting for objects under a given size, 30 A.U., and with a given shape, speckles. mCherry-positive cells were then identified in the red channel filtering for objects between 8-60 pixels in diameter and using intensity to distinguish between clumped objects. The green channel was then segmented into GFP positive and negative areas and objects were labeled as GFP positive if at least 40% of it overlapped with a GFP positive area. The fraction of GFP-positive cells/mCherry-positive cells (GFP/mCherry ratio) in each well was then calculated, and the green and red images were rescaled for visualization. The GFP/mCherry ratio was normalized to DMSO and analyzed in GraphPad Prism 7.

[2] = system: BRD2BD1, BRD2BD2, BRD3BD1, BRD3BD2, BRD4BD1, BRD4BD2 EGFP constructs; assay: EGFP/mCherry reporter assay on individual BET bromodomains (flow cytometry); type: cell-based, human; conditions: for selectivity of degradation across BET bromodomains (in words): BRD2/3/4 BD1 and BD2
Description: (§1) IKZF1A, BRD2BD1, BRD2BD2, BRD3BD1, BRD3BD2, BRD4BD1, and BRD4BD2 were subcloned into mammalian pcDNA5/FRT Vector (Ampicillin and Hygromycin B resistant) modified to contain MCS-eGFP-P2A-mCherry. […] Following 2-3 passage cycle FACS (FACSAria II, BD) was used to enrich for cells expressing eGFP and mCherry.
(§2) Signal from 5000 cells per well was acquired in singlicate or duplicate and the eGFP and mCherry florescence monitored. Data was analyzed using FlowJo (FlowJo, LCC). […] The eGFP protein abundance relative to mCherry was then quantified as a ten-fold amplified ratio for each individual cell using the formula: 10×eGFP/mCherry. The median of the ratio was then calculated per set, normalized to the median of the DMSO ratio, and is denoted as relative abundance. Standard deviation is calculated from four replicates (n=4) unless described otherwise.

BRD4BD1-EGFP = biological target: T1, BRD4BD1-EGFP (Homo sapiens, UniProt O60885+Q96SW2); assay: BRD4BD1-EGFP/mCherry reporter cellular degradation assay (flow cytometry); type: cell-based; conditions: 5 h treatment
T1 construct: expressed in transfected cells
Description: as §1, with “Reporter cells that stably express BRD4BD1-EGFP followed by a P2A splice site separated mCherry, were treated with increasing concentrations of dBET molecules (FIG. 3A-FIG. 3F). […] IKZF1A,” for “IKZF1A,”
as §2

[3] = biological target: T2, endogenous BRD4 in HEK293T cells (Homo sapiens, UniProt O60885); assay: Immunoblot for cellular degradation of endogenous BRD4; type: cell-based; conditions: 5 hours
T2 construct: retains activity on endogenous full length BRD4; endogenous in cells; host or cells: HEK293T
Description: (§3) HEK293T cells were treated with increasing concentrations of ZXH-03-26.

[4] = system: BRD2 and BRD3 in HEK293T cells; assay: Immunoblot for cellular degradation of BRD2 and BRD3; type: cell-based, human
Description: as §3

[5] = biological target: T3, IKZF1Δ-CRBN complex formation (Homo sapiens, UniProt Q13422+Q96SW2, DEL197-239); assay: CRBN-IKZF1Δ binding assay (TR-FRET); conditions: IKZF1Δ and DDB1ΔB-CRBN
T3 construct: made in house; host or cells: Trichoplusia ni High-Five insect cells (baculovirus)
T3 sequence (Q96SW2 whole entry, stated change not applied): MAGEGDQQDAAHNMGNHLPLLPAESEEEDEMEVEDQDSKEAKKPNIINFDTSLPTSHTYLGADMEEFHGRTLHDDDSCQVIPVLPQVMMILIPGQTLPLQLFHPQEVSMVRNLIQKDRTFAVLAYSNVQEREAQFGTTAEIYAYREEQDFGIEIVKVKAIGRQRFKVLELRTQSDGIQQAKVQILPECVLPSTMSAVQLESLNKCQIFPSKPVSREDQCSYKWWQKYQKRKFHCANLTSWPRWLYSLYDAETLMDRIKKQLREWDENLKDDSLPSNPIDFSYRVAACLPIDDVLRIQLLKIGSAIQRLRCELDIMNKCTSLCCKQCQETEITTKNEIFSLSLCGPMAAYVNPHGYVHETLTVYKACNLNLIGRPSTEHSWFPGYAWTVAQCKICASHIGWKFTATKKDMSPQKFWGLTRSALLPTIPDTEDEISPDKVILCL
T3 sequence (Q13422 with tags, fused parts or gaps DEL197-239 limits assumed): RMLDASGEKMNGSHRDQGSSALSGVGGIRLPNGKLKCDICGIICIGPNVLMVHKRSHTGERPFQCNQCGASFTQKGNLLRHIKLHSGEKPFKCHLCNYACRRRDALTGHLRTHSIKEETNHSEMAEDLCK
Description: Compounds in CRBN mutants dimerization assay were dispensed as described above into 200 nM His6-DDB1-His6-CRBNmutants or 200 nM His6-DDB1ΔB-His6-CRBNWT, 100 nM BRD4BD1-BODIPY-SpyCatcher and 2 nM terbium-anti-HIS Ab (Invitrogen) in a buffer containing 50 mM Tris pH 7.5, 100 mM NaCl, 0.1% Pluronic F-68 solution (Sigma) and 2% DMSO (4% DMSO final). Before TR-FRET measurements were conducted, the reactions were incubated for 15 min at RT. […] The TR-FRET signal of each data point was extracted by calculating the 520/490 nm ratio. […] The peak height of TR-FRET dBET dose response data was calculated in GraphPad Prism 7 using Area Under Curve analysis for three independent replicates (n=3) and the mean peak height and standard deviation calculated.
The standard deviation in IKZF1A TR-FRET compound titrations was calculated from three biological replicates (n=3) as an average of 5 technical replicates per well per experiment, or as an average of 5 technical replicates of single experiment for unlabelled protein titrations.

[6] = biological target: T4, IKZF1Δ-EGFP fusion protein (Homo sapiens, UniProt Q13422+Q96SW2, DEL197-239); assay: IKZF1Δ-EGFP fusion protein degradation reporter assay (flow cytometry); type: cell-based; conditions: HEK293T cells
T4 construct: expressed in transfected cells; HEK293T cells
Description: as §1, §2

[7] = 5 h incubation, cellular imaging

COC(=O)C[C@@H]1N=C(c2ccc(Cl)cc2)c2c(sc(C(=O)NCCCCCNc3cc(F)cc4c3CN(C3CCC(=O)NC3=O)C4=O)c2C)-n2c(C)nnc21 (stereo partly drawn) [BJG-01-174, Methyl 2-((6S)-4-(4-chlorophenyl)-2-((5-((2-(2,6-dioxopiperidin-3-yl)-6-fluoro-1-oxoisoindolin-4-yl)amino)pentyl)carbamoyl)-3,9-dimethyl-6H-thieno[3,2-f][1,2,4]triazolo[4,3-a][1,4]diazepin-6-yl)acetate]
bromodomain degradation activity and selectivity (in words) [1, 7]: inactive degrader

COC(=O)C[C@@H]1N=C(c2ccc(Cl)cc2)c2c(sc(C(=O)NCCNc3cccc4c3C(=O)N(C3CCC(=O)NC3=O)C4=O)c2C)-n2c(C)nnc21 (stereo partly shown) [ZXH-3-27]
selectivity of degradation across BET bromodomains (in words) [2]: lack of selective degradation of BRD4

COC(=O)C[C@@H]1N=C(c2ccc(Cl)cc2)c2c(sc(C(=O)NCCNc3ccc4c(c3)C(=O)N(C3CCC(=O)NC3=O)C4=O)c2C)-n2c(C)nnc21 (stereo partly shown) [ZXH-3-28]
bromodomain degradation activity and selectivity (in words) [1, 7]: inactive molecule

Cc1ncsc1-c1ccc(CNC(=O)[C@@H]2C[C@@H](O)CN2C(=O)[C@@H](NC(=O)COCCOCCOCCNC(=O)C[C@@H]2N=C(c3ccc(Cl)cc3)c3c(sc(C)c3C)-n3c(C)nnc32)C(C)(C)C)cc1 [MZ1, reference compound]
selectivity of degradation across BET bromodomains (in words) [2]: activity on most bromodomains

COC(=O)C[C@@H]1N=C(c2ccc(Cl)cc2)c2c(sc(C(=O)NCCCNc3cccc4c3C(=O)N(C3CCC(=O)NC3=O)C4=O)c2C)-n2c(C)nnc21 (stereo partly shown) [ZXH-2-147]
selectivity of degradation across BET bromodomains (in words) [2]: selectively targets BRD4 for degradation and spares BRD2 and BRD3; also recorded: selective degradation of BRD4
degradation of BRD4BD1 (in words) (BRD4BD1-EGFP): active on BRD4BD1

COC(=O)C[C@@H]1N=C(c2ccc(Cl)cc2)c2c(sc(C(=O)NCCCCCNc3cccc4c3C(=O)N(C3CCC(=O)NC3=O)C4=O)c2C)-n2c(C)nnc21 (stereo partly shown) [ZXH-03-26]
degradation of endogenous BRD4 (in words) [3]: degrades endogenous BRD4 with comparable efficacy compared to the best pan-BET degrader dBET6
degradation of BRD2 and BRD3 (in words) [4]: inactive on BRD2 and BRD3
concentrations at which degradation of BRD2 or 3 is spared [2]: > 10 µM
selectivity of degradation across BET bromodomains (in words) [2]: activity exclusively on the first bromodomain of BRD4; also recorded: selectively targets BRD4 for degradation and spares BRD2 and BRD3
degradation of BRD4BD1 (in words) (BRD4BD1-EGFP): active on BRD4BD1
DC50 (BRD4BD1-EGFP; GFP/mCherry ratio, read-out: DC50/5h (half-maximal degradation after 5 hours of treatment), BRD4BD1): ~5 nM

COC(=O)C[C@@H]1N=C(c2ccc(Cl)cc2)c2c(sc(C(=O)NCCCCCNc3ccc(F)c4c3C(=O)N(C3CCC(=O)NC3=O)C4=O)c2C)-n2c(C)nnc21 (stereo partly drawn) [BJG-02-119, Methyl 2-((6S)-4-(4-chlorophenyl)-2-((5-((2-(2,6-dioxopiperidin-3-yl)-7-fluoro-1,3-dioxoisoindolin-4-yl)amino)pentyl)carbamoyl)-3,9-dimethyl-6H-thieno[3,2f][1,2,4]triazolo[4,3-a][1,4]diazepin-6-yl)acetate]
bromodomain degradation activity and selectivity (in words) [1, 7]: maintaining selectivity, with reduced activity as compared to ZXH-3-26

COC(=O)C[C@@H]1N=C(c2ccc(Cl)cc2)c2c(sc(C(=O)NCCCCNc3cccc4c3C(=O)N(C3CCC(=O)NC3=O)C4=O)c2C)-n2c(C)nnc21 (stereo partly shown) [ZXH-2-184]
selectivity of degradation across BET bromodomains (in words) [2]: selectively targets BRD4 for degradation and spares BRD2 and BRD3; also recorded: selective degradation of BRD4

COC(=O)C[C@@H]1N=C(c2ccc(Cl)cc2)c2c(sc(C(=O)NCCCCCCCCOc3ccc4c(c3)C(=O)N(C3CCC(=O)NC3=O)C4=O)c2C)-n2c(C)nnc21 (stereo partly shown) [ZXH-2-45]
induction of IKZF1-CRBN complex formation / IKZF1 binding (in words) [5]: greatly reduced compared to their nitrogen analogs; also recorded: reduced IKZF1 binding
bromodomain degradation activity and selectivity (in words) [1, 7]: potent degradation of bromodomains
cellular IKZF1 degradation (in words) [6]: reduced IKZF1 binding and IKZF1 degradation

Cc1sc2c(c1C)C(c1ccc(Cl)cc1)=N[C@@H](CC(=O)NCCOc1cccc3c1C(=O)N(C1CCC(=O)NC1=O)C3=O)c1nnc(C)n1-2 (stereo partly shown) [ZXH-2-42]
induction of IKZF1-CRBN complex formation / IKZF1 binding (in words) [5]: greatly reduced compared to their nitrogen analogs
bromodomain degradation activity and selectivity (in words) [1, 7]: significantly reduced activity

COC(=O)C[C@@H]1N=C(c2ccc(Cl)cc2)c2c(sc(C(=O)NCCCCCCCCOc3cccc4c3C(=O)N(C3CCC(=O)NC3=O)C4=O)c2C)-n2c(C)nnc21 (stereo partly shown) [ZXH-2-43]
induction of IKZF1-CRBN complex formation / IKZF1 binding (in words) [5]: greatly reduced compared to their nitrogen analogs; also recorded: reduced IKZF1 binding
degradation of BRD2/3/4 at low concentration (in words) ([1]; 2.6 nM concentration, 5 h): significant degradation of BRD2/3/4
bromodomain degradation activity and selectivity (in words) [1, 7]: potent degradation of bromodomains
cellular IKZF1 degradation (in words) [6]: reduced IKZF1 binding and IKZF1 degradation

COC(=O)C[C@@H]1N=C(c2ccc(Cl)cc2)c2c(sc(C(=O)NCCCCCOc3cccc4c3C(=O)N(C3CCC(=O)NC3=O)C4=O)c2C)-n2c(C)nnc21 (stereo partly drawn) [BJG-02-030, Methyl 2-((6S)-4-(4-chlorophenyl)-2-((5-((2-(2,6-dioxopiperidin-3-yl)-1,3-dioxoisoindolin-4-yl)oxy)pentyl)carbamoyl)-3,9-dimethyl-6H-thieno[3,2-f][1,2,4]triazolo[4,3-a][1,4]diazepin-6-yl)acetate]
bromodomain degradation activity and selectivity (in words) [1, 7]: maintained BRD4BD1 degradation selectivity, with reduced activity

COC(=O)C[C@@H]1N=C(c2ccc(Cl)cc2)c2c(sc(C(=O)NCCCCCCCCNc3ccc4c(c3)C(=O)N(C3CCC(=O)NC3=O)C4=O)c2C)-n2c(C)nnc21 (stereo partly shown) [dBET72, reference compound]
induction of IKZF1-CRBN complex formation / IKZF1 binding (in words) [5]: pronounced complex formation
cellular IKZF1 degradation (in words) [6]: equipotent to lenalidomide

COC(=O)C[C@@H]1N=C(c2ccc(Cl)cc2)c2c(sc(C(=O)NCCCc3cccc4c3C(=O)N(C3CCC(=O)NC3=O)C4=O)c2C)-n2c(C)nnc21 (stereo partly shown) [ZXH-3-52]
BRD3/BRD4 selective degradation observed [1, 7]: BRD3/BRD4 selective degraders

COC(=O)C[C@@H]1N=C(c2ccc(Cl)cc2)c2c(sc(C(=O)NCCCCCCc3cccc4c3C(=O)N(C3CCC(=O)NC3=O)C4=O)c2C)-n2c(C)nnc21 (stereo partly shown) [ZXH-3-82]
selectivity of degradation across BET bromodomains (in words) [2]: selectively targets BRD4 for degradation and spares BRD2 and BRD3
